By NOAEL is commonly meant the highest tested level that showed no adverse finding.

These results are taken from EPA's ToxValDB 9.5 (doi:10.2903/j.efsa.2016.4491).

One data set has as its system Poecilus cupreus. In words: LR50; higher = less toxic. Conditions: not reported; mortality.
The subject of another data set is Canidae. Conditions: chronic, oral, Dog Other, clinical signs.
The test system of the next data set is Daphnia magna. To be noted: chronic/long-term; duration: 21 days; reproduction.
In the next data set the test system is Bibionidae. Conditions: chronic/long-term; duration: 28 days.

In the data set with Poecilus cupreus, `CC[C@H](C)[C@H]1O[C@]2(C=C[C@@H]1C)C[C@@H]1C[C@@H](C/C=C(\C)[C@@H](O[C@H]3C[C@H](OC)[C@@H](O[C@H]4C[C@H](OC)[C@@H](O)[C@H](C)O4)[C@H](C)O3)[C@@H](C)/C=C/C=C3\CO[C@@H]4[C@H](O)C(C)=C[C@@H](C(=O)O1)[C@]34O)O2.CO[C@H]1C[C@H](O[C@H]2[C@H](C)O[C@@H](O[C@@H]3/C(C)=C/C[C@@H]4C[C@@H](C[C@]5(C=C[C@H](C)[C@@H](C(C)C)O5)O4)OC(=O)[C@@H]4C=C(C)[C@@H](O)[C@H]5OC/C(=C\C=C\[C@@H]3C)[C@]54O)C[C@@H]2OC)O[C@@H](C)[C@@H]1O` [Abamectin] came in with an LR50 of over 58 g/ha. The LC50 in the data set on Tagia sp. (acute, duration: 14 days, mortality) is 33 mg/kg; with Anas platyrhynchos (short-term, oral, feed, mortality), 48.6 mg/kg-day. Further, the NOEC is at least 0.72 mg/kg with Tagia sp. (not reported); 1e-05 mg/L in the data set on Daphnia magna; 0.12 mg/kg-day with Rattus norvegicus (chronic, oral); 8.1e-05 mg/L in the data set with Bibionidae; 1.33 mg/kg-day in the data set on Anas platyrhynchos (chronic/long-term, M); 0.00052 mg/L with Oncorhynchus mykiss (chronic/long-term, duration: 28 days). For the same compound, the NOAEL in the data set with Canidae (duration: 18 weeks) was 0.25 mg/kg-day; with Canidae (duration: 53 weeks), 0.25 mg/kg-day; with Rattus norvegicus (acute, clinical signs), 0.5 mg/kg-day. Moreover, the LD50 with Rattus norvegicus (acute, mortality) is 8.7 mg/kg; in the data set on Anas platyrhynchos (acute, oral, unspecified, mortality) it was at most 77 mg/kg-day; in the data set with Oncorhynchus mykiss (acute, duration: 96 hours, mortality), 0.0036 mg/L.
